One test deals with farnesyl transferase (Homo sapiens, UniProt P49354+P49356). Briefly: Farnesyl transferase inhibition, [3H]-farnesylation of biotinylated K-ras C-terminal peptide (SPA assay). The settings on record: In vitro inhibitory activity (K-Ras) IC50, K-Ras substrate; 60 min at 37° C.; mean of two IC50 values. Type of test: biochemical. As for the experimental part: The farnesyl transferase activity was measured by the amount farnesylated of K-ras substrate or of substrate derived from the peptide corresponding to its C-terminal part, the farnesyl group being introduced by farnesyl pyrophosphate (FPP).
It was then brought into contact with PVT-streptavidin (Amersham)® beads and was quantified by proximity scintillation (SPA assay) between the tritium and the PVT beads, by virtue of the streptavidin/biotin interaction.
Experimentally, farnesyl transferase purified according to the appended protocol was diluted, for this assay, to a concentration such that a consumption of substrates of less than 30% was obtained.
The reaction, carried out in Optiplates 96° microtitration plates, was initiated by the enzyme and lasted sixty minutes at 37° C. It was stopped by addition of 150 μl of mixture of a blocking buffer at pH 4 composed of 0.2M H3 PO4, 1.5 mM MgCl2, 0.5% (w/v) BSA, 0.05% (w/v) sodium azide containing 200 μg of PVT-streptavidin beads.
After slow agitation for thirty minutes (in order to remove the chemiluminescence), the plates were read as [^3 H]CPM in a Top Count® (Packard) scintillation counter for microplates, where they were converted into [^3 H]DPM from a range of coloured agent attenuating the scintillation (quenching).
The percentages of inhibition were calculated with respect to an inhibitor-free control after subtraction from all the values of that of a blank which only contained the substrates and the buffer.
The IC50 values were calculated or measured, from the inhibitions obtained at nine different concentrations, with Enzfitter® or Grafit® software. The IC50 values which appear in the results are the mean of measurements and calculations of two IC50 values.
In general, IC50 refers to the midpoint of a concentration-inhibition curve. Consider `C=C(C(=O)N1C[C@@H]2[C@@]3(c4ccsc4)CC[C@@H](c4ccccc43)[C@]2(C(=O)O)C1)c1ccccc1OC` (racemic) [Example 58, (3aRS,4SR,9SR,9aRS)-4,9-ethano-2-[2-(2-methoxyphenyl)propenoyl]-9-(3-thienyl)-2,3,3a,4,9,9a-hexahydro-1H-benzo[f]isoindole-3a-carboxylic Acid], for which inhibition was half-maximal at 138 nM (IC50).

The test is the same for the next values; noted with them: K-Ras substrate; 60 min at 37° C.; mean of two IC50 values; read-out: In vitro inhibitory activity (K-Ras) IC50.
Take `C=C(C(=O)N1C[C@@H]2[C@]3(c4ccc(Cl)cc4)CC[C@@H](c4ccccc43)[C@]2(C(=O)OC)C1)c1ccccc1OC` (racemic) [Example 52, methyl (3aRS,4SR,9SR,9aRS)-9-(4-chlorophenyl)-4,9-ethano-2-[2-(2-methoxyphenyl)-propenoyl]-2,3,3a,4,9,9a-hexahydro-1H-benzo[f]isoindole-3a-carboxylate]: the IC50 is 181 nM.
As for `C=C(C(=O)N1C[C@@H]2[C@]3(c4ccc(Cl)cc4)CC[C@@H](c4ccccc43)[C@]2(C(=O)O)C1)c1ccccc1OC` (racemic) [Example 53, (3aRS,4SR,9SR,9aRS)-9-(4-chlorophenyl)-4,9-ethano-2-[2-(2-methoxyphenyl)propenoyl]-2,3,3a,4,9,9a-hexahydro-1H-benzo[f]isoindole-3a-carboxylic Acid], the half-inhibitory concentration (IC50) came out at 20 nM.
With `C=C(C(=O)N1C[C@@H]2[C@]3(c4ccc(OC)c(C)c4)CC[C@@H](c4ccccc43)[C@]2(C(=O)O)C1)c1ccccc1OC` (racemic) [Example 54, (3aRS,4SR,9SR,9aRS)-4,9-ethano-2-[2-(2-methoxyphenyl)propenoyl]-9-(4-methoxy-3-methylphenyl)-2,3,3a,4,9,9a-hexahydro-1H-benzo[f]isoindole-3a-carboxylic Acid], the half-maximal inhibitory concentration (IC50) turned out to be 78 nM.
Same read-out and setting: next, `C=C(C(=O)N1C[C@@H]2[C@@]3(c4c[nH]c5ccccc45)CC[C@@H](c4ccccc43)[C@]2(C(=O)OC)C1)c1ccccc1OC` (racemic) [Example 55, methyl (3aRS,4SR,9SR,9aRS)-4,9-ethano-2-[2-(2-methoxyphenyl)propenoyl]-9-(3-indolyl)-2,3,3a,4,9,9a-hexahydro-1H-benzo[f]isoindole-3a-carboxylate]: 558 nM.
For the compound `COc1ccccc1CC(=O)N1C[C@@H]2[C@]3(c4ccc(C(C)C)cc4)CC[C@@H](c4ccccc43)[C@]2(C(=O)O)C1` (racemic) [Example 56, (3aRS,4SR,9SR,9aRS)-4,9-ethano-9-(4-isopropylphenyl)-2-[(2-methoxyphenyl)acetyl]-2,3,3a,4,9,9a-hexahydro-1H-benzo[f]isoindole-3a-carboxylic Acid], the half-maximal inhibitory concentration (IC50) was 589 nM.
Still for that read-out and setting: the figure for `C=C(C(=O)N1C[C@@H]2[C@]3(c4ccc(C(C)C)cc4)CC[C@@H](c4ccccc43)[C@]2(C(=O)O)C1)c1ccccc1OC` (racemic) [Example 57, (3aRS,4SR,9SR,9aRS)-4,9-ethano-9-(4-isopropylphenyl)-2-[2-(2-methoxyphenyl)propenoyl]-2,3,3a,4,9,9a-hexahydro-1H-benzo[f]isoindole-3a-carboxylic Acid] is 280 nM.
Take `C=C(C(=O)N1C[C@@H]2[C@]3(c4ccc(CC)cc4)CC[C@@H](c4ccccc43)[C@]2(C(=O)OC)C1)c1ccccc1OC` (racemic) [Example 59, methyl (3aRS,4SR,9SR,9aRS)-4,9-ethano-9-(4-ethylphenyl)-2-[2-(2-methoxyphenyl)propenoyl]-2,3,3a,4,9,9a-hexahydro-1H-benzo[f]isoindole-3a-carboxylate]: the concentration for half-maximal inhibition (IC50) is 408 nM.
Turning to `C=C(C(=O)N1C[C@@H]2[C@]3(c4ccc(CC)cc4)CC[C@@H](c4ccccc43)[C@]2(C(=O)O)C1)c1ccccc1OC` (racemic) [Example 60, (3aRS,4SR,9SR,9aRS)-4,9-ethano-9-(4-ethylphenyl)-2-[2-(2-methoxyphenyl)propenoyl]-2,3,3a,4,9,9a-hexahydro-1H-benzo[f]isoindole-3a-carboxylic Acid], the 50% inhibitory concentration (IC50) amounted to 124 nM.
With `C=C(C(=O)N1C[C@@H]2[C@]3(c4ccc5c(c4)CCO5)CC[C@@H](c4ccccc43)[C@]2(C(=O)OC)C1)c1ccccc1OC` (racemic) [Example 61, methyl (3aRS,4SR,9SR,9aRS)-9-(2,3-dihydrobenzofuran-5-yl)-4,9-ethano-2-[2-(2-methoxyphenyl)propenoyl]-2,3,3a,4,9,9a-hexahydro-1H-benzo[f]isoindole-3a-carboxylate], the IC50 was 178 nM.
On the same count and under the same terms, the figure for `C=C(C(=O)N1C[C@@H]2[C@]3(c4ccc5c(c4)CCO5)CC[C@@H](c4ccccc43)[C@]2(C(=O)O)C1)c1ccccc1OC` (racemic) [Example 62, (3aRS,4SR,9SR,9aRS)-9-(2,3-dihydrobenzofuran-5-yl)-4,9-ethano-2-[2-(2-methoxyphenyl)propenoyl]-2,3,3a,4,9,9a-hexahydro-1H-benzo[f]isoindole-3a-carboxylic Acid] is 36 nM.
With `C=C(C(=O)N1C[C@@H]2[C@]3(c4ccc(F)cc4)CC[C@@H](c4ccccc43)[C@]2(C(=O)OC)C1)c1ccccc1OC` (racemic) [Example 64, methyl (3aRS,4SR,9SR,9aRS)-4,9-ethano-9-(4-fluorophenyl)-2-[2-(2-methoxyphenyl)propenoyl]-2,3,3a,4,9,9a-hexahydro-1H-benzo[f]isoindole-3a-carboxylate], the IC50 turned out to be 325 nM.
On the same count and under the same terms, the figure for `C=C(C(=O)N1C[C@@H]2[C@]3(c4ccc(F)cc4)CC[C@@H](c4ccccc43)[C@]2(C(=O)O)C1)c1ccccc1OC` (racemic) [Example 65, (3aRS,4SR,9SR,9aRS)-4,9-ethano-9-(4-fluorophenyl)-2-[2-(2-methoxyphenyl)propenoyl]-2,3,3a,4,9,9a-hexahydro-1H-benzo[f]isoindole-3a-carboxylic acid] is 40 nM; for `C=C(C(=O)N1C[C@@H]2[C@]3(c4ccc(Cl)c(F)c4)CC[C@@H](c4ccccc43)[C@]2(C(=O)OC)C1)c1ccccc1OC` (racemic) [Example 66, methyl (3aRS,4SR,9SR,9aRS)-9-(4-chloro-3-fluorophenyl)-4,9-ethano-2-[2-(2-methoxyphenyl)-propenoyl]-2,3,3a,4,9,9a-hexahydro-1H-benzo[f]isoindole-3a-carboxylate] it is 379 nM; for `C=C(C(=O)N1C[C@@H]2[C@]3(c4ccc(Cl)c(F)c4)CC[C@@H](c4ccccc43)[C@]2(C(=O)O)C1)c1ccccc1OC` (racemic) [Example 67, (3aRS,4SR,9SR,9aRS)-9-(4-chloro-3-fluorophenyl)-4,9-ethano-2-[2-(2-methoxyphenyl)propenoyl]-2,3,3a,4,9,9a-hexahydro-1H-benzo[f]isoindole-3a-carboxylic Acid] it is 101 nM.
Still for that read-out and setting: next, `C=C(C(=O)N1C[C@@H]2[C@]3(c4cccc(C)c4)CC[C@@H](c4ccccc43)[C@]2(C(=O)OC)C1)c1ccccc1OC` (racemic) [Example 68, methyl (3aRS,4SR,9SR,9aRS)-4,9-ethano-2-[2-(2-methoxyphenyl)propenoyl]-9-(3-methylphenyl)-2,3,3a,4,9,9a-hexahydro-1H-benzo[f]isoindole-3a-carboxylate]: 431 nM; `C=C(C(=O)N1C[C@@H]2[C@]3(c4cccc(C)c4)CC[C@@H](c4ccccc43)[C@]2(C(=O)O)C1)c1ccccc1OC` (racemic) [Example 69, (3aRS,4SR,9SR,9aRS)-4,9-ethano-2-[2-(2-methoxyphenyl)propenoyl]-9-(3-methylphenyl)-2,3,3a,4,9,9a-hexahydro-1H-benzo[f]isoindole-3a-carboxylic Acid]: 53 nM.
Turning to `C=C(C(=O)N1C[C@@H]2[C@]3(c4ccc5c(c4)OCO5)CC[C@@H](c4ccccc43)[C@]2(C(=O)O)C1)c1ccccc1OC` (racemic) [Example 70, (3aRS,4SR,9SR,9aRS)-9-(1,3-benzodioxol-5-yl)-4,9-ethano-2-[2-(2-methoxyphenyl)propenoyl]-2,3,3a,4,9,9a-hexahydro-1H-benzo[f]isoindole-3a-carboxylic Acid], the 50% inhibitory concentration (IC50) is 67 nM.
Still for that read-out and setting: next, `C=C(C(=O)N1C[C@@H]2[C@]3(c4ccc(C)c(C)c4)CC[C@@H](c4ccccc43)[C@]2(C(=O)OC)C1)c1ccccc1OC` (racemic) [Example 71, methyl (3aRS,4SR,9SR,9aRS)-9-(3,4-dimethylphenyl)-4,9-ethano-2-[2-(2-methoxyphenyl)propenoyl]-2,3,3a,4,9,9a-hexahydro-1H-benzo[f]isoindole-3a-carboxylate]: 335 nM; `C=C(C(=O)N1C[C@@H]2[C@]3(c4ccc(C)c(C)c4)CC[C@@H](c4ccccc43)[C@]2(C(=O)O)C1)c1ccccc1OC` (racemic) [Example 72, (3aRS,4SR,9SR,9aRS)-9-(3,4-dimethylphenyl)-4,9-ethano-2-[2-(2-methoxyphenyl)propenoyl]-2,3,3a,4,9,9a-hexahydro-1H-benzo[f]isoindole-3a-carboxylic Acid]: 98 nM.
Same read-out and setting: next, `C=C(C(=O)N1C[C@@H]2[C@]3(c4ccc(OC)cc4)CC[C@@H](c4ccccc43)[C@]2(C(=O)OC)C1)c1ccccc1OC` (racemic) [Example 73, methyl (3aRS,4SR,9SR,9aRS)-4,9-ethano-9-(4-methoxyphenyl)-2-[2-(2-methoxyphenyl)propenoyl]-2,3,3a,4,9,9a-hexahydro-1H-benzo[f]isoindole-3a-carboxylate]: 460 nM.
